Results: patent US7109181B2, “Joint lubrication with P2Y purinergic receptor agonists” (Inspire Pharmaceuticals, Inc., priority 2001, dated 2006)

Each compound was assayed on synovial fibroblasts (assay: Measurement of cytosolic calcium in cultured synovial fibroblasts (Fluo-3 AM, FLIPR)). Conditions: synovial fibroblasts stimulated with increasing concentrations of P2Y receptor agonists; FIG. 1.
Type: cell-based
Source text: The pharmaceutical utility of compounds of this invention is indicated by the cytosolic calcium assay for P2Y2 and other P2Y receptor activity. This widely used assay, as described in Pendergast, et al. (2001) (Bioorg. Med. Chem. Lett. 11, 157-160), relies on the measurement of increased cytosolic calcium levels to determine the biological activity of compounds that activate receptors linked via G-proteins to phospholipase C. The efficacy of these compounds is reflected in their ability to alter and/or enhance the secretory activity of the joints, including but not limited to, the knee, hip, and shoulder, to effectuate the agent's target response. The target response is the improvement of joint lubrication and movement.
A conventional technique was used to detect increases in cytosolic calcium induced by P2Y receptor agonists, a technique familiar to those skilled in the art. Cells were seeded in 96-well plates and used for cytosolic calcium assays. On the day of the assay, the growth medium was aspirated and replaced with a solution of Fluo-3 AM (2.5 μM final concentration) in an assay buffer consisting of (mM): KCl (10), NaCl (118), CaCl2 (2.5), MgCl2 (1), HEPES (20), glucose (10), pH 7.4. Probenecid (Sigma Chemical Co.) was added to the dye load and dye wash medium at a working concentration of 2.5 mM to increase dye retention in the cells. After a 60 minute incubation with Fluo-3 AM at 25° C., cells were washed free of dye (Columbus Plate Washer, TECAN U.S., Inc., Research Triangle Park, N.C.) and were stimulated with increasing concentrations of P2Y receptor agonists. Intracellular calcium levels were simultaneously monitored in each well by measuring the changes in fluorescence intensity using the FLIPR (Molecular Devices Corp., Sunnyvale, Calif.).
Synovial fibroblasts were subjected to the cytosolic calcium assay described above. […] The induction of increases in cytosolic calcium by ATP and UTP in synovial fibroblasts indicated the pharmaceutical utility of P2Y2 receptor agonists in the joint.
For `Nc1ncnc2c1ncn2[C@@H]1O[C@H](COP(=O)(O)OP(=O)(O)OP(=O)(O)O)[C@@H](O)[C@H]1O` [ATP, adenosine-5′-triphosphate], the “effect on cytosolic calcium levels” value was “stimulate increases in cytosolic calcium”. In the case of `O=c1ccn([C@@H]2O[C@H](COP(=O)(O)OP(=O)(O)OP(=O)(O)O)[C@@H](O)[C@H]2O)c(=O)[nH]1` [UTP, uridine-5′-triphosphate], the “effect on cytosolic calcium levels” value was “stimulate increases in cytosolic calcium”. For `CSc1nc(N)c2ncn([C@@H]3O[C@H](COP(=O)(O)OP(=O)(O)O)[C@@H](O)[C@H]3O)c2n1` [2-methylthioADP, reference compound], the “effect on cytosolic calcium levels” value was “did not alter cytosolic calcium concentration”.
